Experimental data taken from patent US8772480B2, “Inhibitors of PI3 kinase and/or mTOR” (priority 2009, dated 2014).

Experiments:
PI3Kα = PI3Kα (Homo sapiens (Human), UniProt P42336); conditions: read-out: PI3Kα AlphaScreen ® Ki
[1] = tested on: phosphorylation of Akt at Serine 473 in U87 MG cells; test: cells; conditions: Homo sapiens, U-87 MG, 2 h, read-out: U87Cell IC50, pAkt (Ser 473), U87 MG cells, two hours with compound

Chain of PI3Kα (P42336 whole entry): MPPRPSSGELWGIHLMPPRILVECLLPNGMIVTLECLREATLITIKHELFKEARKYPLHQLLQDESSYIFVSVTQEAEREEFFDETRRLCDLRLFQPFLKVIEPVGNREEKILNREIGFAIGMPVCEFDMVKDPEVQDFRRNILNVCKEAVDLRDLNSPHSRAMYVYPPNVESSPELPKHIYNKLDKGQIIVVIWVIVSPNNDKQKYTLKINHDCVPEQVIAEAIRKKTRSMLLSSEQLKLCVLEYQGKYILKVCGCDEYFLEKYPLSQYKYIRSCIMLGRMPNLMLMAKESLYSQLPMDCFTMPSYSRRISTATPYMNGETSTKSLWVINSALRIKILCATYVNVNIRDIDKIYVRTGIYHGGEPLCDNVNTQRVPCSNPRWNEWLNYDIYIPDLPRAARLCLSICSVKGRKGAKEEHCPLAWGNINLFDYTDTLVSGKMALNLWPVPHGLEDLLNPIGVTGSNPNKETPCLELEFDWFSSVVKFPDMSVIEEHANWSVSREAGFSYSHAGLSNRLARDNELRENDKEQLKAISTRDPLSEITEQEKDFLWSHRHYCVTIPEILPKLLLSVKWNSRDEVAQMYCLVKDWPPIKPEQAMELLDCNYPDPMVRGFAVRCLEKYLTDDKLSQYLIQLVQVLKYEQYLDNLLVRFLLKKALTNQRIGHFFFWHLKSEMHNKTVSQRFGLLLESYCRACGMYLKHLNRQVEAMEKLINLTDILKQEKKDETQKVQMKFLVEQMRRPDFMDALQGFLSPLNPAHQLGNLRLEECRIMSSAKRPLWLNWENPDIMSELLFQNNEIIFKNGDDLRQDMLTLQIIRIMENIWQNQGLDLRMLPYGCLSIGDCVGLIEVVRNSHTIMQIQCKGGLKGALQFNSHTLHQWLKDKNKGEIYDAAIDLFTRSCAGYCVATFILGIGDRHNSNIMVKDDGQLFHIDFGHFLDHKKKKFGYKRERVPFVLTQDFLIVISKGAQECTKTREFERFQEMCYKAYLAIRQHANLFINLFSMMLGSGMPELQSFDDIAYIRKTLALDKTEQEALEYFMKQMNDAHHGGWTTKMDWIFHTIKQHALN
Chain of PI3Kα (P27986 whole entry partner): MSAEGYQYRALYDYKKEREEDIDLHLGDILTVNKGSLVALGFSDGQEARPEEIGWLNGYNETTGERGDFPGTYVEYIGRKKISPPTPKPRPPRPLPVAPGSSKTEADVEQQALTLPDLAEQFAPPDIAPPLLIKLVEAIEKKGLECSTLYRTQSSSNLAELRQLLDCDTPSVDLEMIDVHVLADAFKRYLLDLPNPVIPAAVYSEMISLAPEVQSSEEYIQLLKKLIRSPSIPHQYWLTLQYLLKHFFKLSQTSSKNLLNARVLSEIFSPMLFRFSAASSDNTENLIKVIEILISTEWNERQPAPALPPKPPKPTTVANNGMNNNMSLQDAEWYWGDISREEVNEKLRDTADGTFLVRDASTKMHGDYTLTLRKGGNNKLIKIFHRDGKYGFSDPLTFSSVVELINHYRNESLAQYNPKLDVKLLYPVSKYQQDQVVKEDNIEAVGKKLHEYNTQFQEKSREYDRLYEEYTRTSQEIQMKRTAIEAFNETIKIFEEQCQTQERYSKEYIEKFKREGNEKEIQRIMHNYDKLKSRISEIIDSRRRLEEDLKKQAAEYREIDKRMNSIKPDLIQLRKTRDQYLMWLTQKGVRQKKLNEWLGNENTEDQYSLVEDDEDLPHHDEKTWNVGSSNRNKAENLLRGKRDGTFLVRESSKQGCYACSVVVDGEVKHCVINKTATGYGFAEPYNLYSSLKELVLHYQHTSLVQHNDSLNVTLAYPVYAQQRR

Row | SMILES | Ki (PI3Kα) [nM] | IC50 [1] [nM]
1 | COc1ccc(Nc2ncc(CNc3ccncc3)cc2-c2nc(C)nc3[nH]cnc23)cn1 [Example 81, N-(6-methoxypyridin-3-yl)-3-(2-methyl-9H-purin-6-yl)-5-((pyridin-4-ylamino)methyl)pyridin-2-amine] | 42 | 509
2 | COc1ccc(Nc2ncc(CNc3ccccn3)cc2-c2nc(C)nc3[nH]cnc23)cn1 [Example 82, N-(6-methoxypyridin-3-yl)-3-(2-methyl-9H-purin-6-yl)-5-((pyridin-2-ylamino)methyl)pyridin-2-amine] | 25 | 226
3 | COc1ccc(Nc2ncc(CNc3ccccc3)cc2-c2nc(C)nc3[nH]cnc23)cn1 [Example 83, N-(6-methoxypyridin-3-yl)-3-(2-methyl-9H-purin-6-yl)-5-((phenylamino)methyl)pyridin-2-amine] | 45 | 700
4 | COC(=O)N1CCN(Cc2cnc(Nc3ccc(OC)nc3)c(-c3nc(C)nc4[nH]cnc34)c2)CC1 [Example 86, Methyl 4-((6-(6-Methoxypyridin-3-Ylamino)-5-(2-Methyl-9H-Purin-6-yl)Pyridin-3-yl)Methyl)Piperazine-1-Carboxylate] | 18 | 63
5 | COc1ccc(Nc2ncc(CN3CCN(C(=O)N(C)C)CC3)cc2-c2nc(C)nc3[nH]cnc23)cn1 [Example 87, 4-((6-(6-Methoxypyridin-3-Ylamino)-5-(2-Methyl-9H-Purin-6-yl)Pyridin-3-yl)Methyl)-N,N-Dimethylpiperazine-1-Carboxamide] | 43 | 209
6 | COc1ccc(Nc2ncc(CN3CCN(S(=O)(=O)N(C)C)CC3)cc2-c2nc(C)nc3[nH]cnc23)cn1 [Example 88, 4-((6-(6-Methoxypyridin-3-Ylamino)-5-(2-Methyl-9H-Purin-6-yl)Pyridin-3-yl)Methyl)-N,N-Dimethylpiperazine-1-Sulfonamide] | 7 | 45
7 | COc1ccc(Nc2ncc(NCc3ccccc3)cc2-c2nc(C)nc3[nH]cnc23)cn1 [Example 91, N5-benzyl-N2-(6-methoxypyridin-3-yl)-3-(2-methyl-9H-purin-6-yl)pyridine-2,5-diamine] | 57 | 378
8 | COc1ccc(Nc2ncc(Nc3ccccc3)cc2-c2nc(C)nc3[nH]cnc23)cn1 [Example 92, N2-(6-methoxypyridin-3-yl)-3-(2-methyl-9H-purin-6-yl)-N-5-phenylpyridine-2,5-diamine] | 33 | 916
9 | COCCNc1cnc(Nc2ccc(OC)nc2)c(-c2nc(C)nc3[nH]cnc23)c1 [Example 93, N5-(2-methoxyethyl)-N2-(6-methoxypyridin-3-yl)-3-(2-methyl-9H-purin-6-yl)pyridine-2,5-diamine] | 104 | 929
10 | CCNc1cnc(Nc2ccc(OC)nc2)c(-c2nc(C)nc3[nH]cnc23)c1 [Example 94, N5-ethyl-N2-(6-methoxypyridin-3-yl)-3-(2-methyl-9H-purin-6-yl)pyridine-2,5-diamine] | 181 | 1230
11 | COc1ccc(CNc2cnc(Nc3ccc(OC)nc3)c(-c3nc(C)nc4[nH]cnc34)c2)cc1 [Example 95, N5-(4-methoxybenzyl)-N2-(6-methoxypyridin-3-yl)-3-(2-methyl-9H-purin-6-yl)pyridine-2,5-diamine] | 77 | 272
12 | COc1ccc(Nc2ncc(N3CCC(O)C3)cc2-c2nc(C)nc3[nH]cnc23)cn1 (centres unmarked) [Example 98, 1-(6-(6-Methoxypyridin-3-Ylamino)-5-(2-Methyl-9H-Purin-6-yl)Pyridin-3-yl)Pyrrolidin-3-ol] | 79 | 297
13 | COc1ccc(Nc2ncc(N3CCN(S(C)(=O)=O)CC3)cc2-c2nc(C)nc3[nH]cnc23)cn1 [Example 99, N-(6-Methoxypyridin-3-yl)-3-(2-Methyl-9H-Purin-6-yl)-5-(4-(Methylsulfonyl)Piperazin-1-yl)Pyridin-2-Amine] | 23 | 204
14 | COc1ccc(Nc2ncc(N3CCC[C@H]3CO)cc2-c2nc(C)nc3[nH]cnc23)cn1 [Example 100, ((2S)-1-(6-(6-Methoxypyridin-3-Ylamino)-5-(2-Methyl-9H-Purin-6-yl)Pyridin-3-yl)Pyrrolidin-2-yl)Methanol] | 29 | 192
15 | COc1ccc(Nc2ncc(N3CCC[C@@H]3CO)cc2-c2nc(C)nc3[nH]cnc23)cn1 [Example 101, ((2R)-1-(6-(6-Methoxypyridin-3-Ylamino)-5-(2-Methyl-9H-Purin-6-yl)Pyridin-3-yl)Pyrrolidin-2-yl)Methanol] | 40 | 293
16 | Cc1nc(-c2cc(Cc3ccc(S(C)(=O)=O)cc3)cnc2Nc2ccc(N)nc2)c2nc[nH]c2n1 [Example 106, N5-(3-(2-methyl-9H-purin-6-yl)-5-(4-(methylsulfonyl)benzyl)pyridin-2-yl)pyridine-2,5-diamine] | 12 | 140
17 | Cc1nc(-c2cnccc2Nc2cccc3[nH]ncc23)c2nc[nH]c2n1 [Example 110, N-(3-(2-methyl-9H-purin-6-yl)pyridin-4-yl)-1H-indazol-4-amine] | 264 | 2420
18 | COc1ccc(Nc2ccncc2-c2nc(C)nc3[nH]cnc23)cn1 [Example 111, 6-methoxy-N-(3-(2-methyl-9H-purin-6-yl)pyridin-4-yl)pyridin-3-amine] | 252 | 1170
19 | Cc1nc(N)cc(-c2nccnc2Nc2cccc3[nH]ncc23)n1 [Example 112, N-(3-(6-amino-2-methylpyrimidin-4-yl)pyrazin-2-yl)-1H-indazol-4-amine] | 98 | 450
20 | COc1ccc(Nc2nc3ccccc3cc2-c2nc(C)nc3[nH]cnc23)cn1 [Example 113, N-(6-Methoxypyridin-3-yl)-3-(2-Methyl-9H-Purin-6-yl)Quinolin-2-Amine] | 38 | > 10000
21 | COc1ccc(Nc2nc(N)ncc2-c2nc(C)nc(N)n2)cn1 [Example 118, 5-(4-amino-6-methyl-1,3,5-triazin-2-yl)-N4-(6-methoxypyridin-3-yl)pyrimidine-2,4-diamine] | 113 | 172
22 | COc1ccc(Nc2nc(N3CCOCC3)ncc2-c2nc(C)nc(N)n2)cn1 [Example 120, 4-(4-(6-methoxypyridin-3-ylamino)-2-morpholinopyrimidin-5-yl)-6-methyl-1,3,5-triazin-2-amine] | 97 | 148
23 | COc1ccc(Nc2nc(N(C)C)ncc2-c2nc(C)nc(N)n2)cn1 [Example 121, 5-(4-amino-6-methyl-1,3,5-triazin-2-yl)-N4-(6-methoxypyridin-3-yl)-N2,N2-dimethylpyrimidine-2,4-diamine] | 45 | 190
24 | COc1ccc(Nc2nc(N3CCCC3)ncc2-c2nc(C)nc(N)n2)cn1 [Example 122, 4-(4-(6-methoxypyridin-3-ylamino)-2-(pyrrolidin-1-yl)pyrimidin-5-yl)-6-methyl-1,3,5-triazin-2-amine] | 51 | 725
25 | COc1ccc(Nc2nc(N3CCCCC3)ncc2-c2nc(C)nc(N)n2)cn1 [Example 123, 4-(4-(6-methoxypyridin-3-ylamino)-2-(piperidin-1-yl)pyrimidin-5-yl)-6-methyl-1,3,5-triazin-2-amine] | 102 | > 10000
